Measurements taken from paper PMC7832312, “Enhancing the Physiochemical Properties of Puerarin via L-Proline Co-Crystallization: Synthesis, Characterization, and Dissolution Studies of Two Phases of Pharmaceutical Co-Crystals” (International Journal of Molecular Sciences, 2021).

How the values were obtained:
[1] = Dissolution rate measurement (UV, 250 mL medium, 150 RPM, 2 h, 37 °C); format: physicochemical; details: 37 °C
Procedure: The solubility and dissolution studies of pure PUE, I, and II were measured using a Thermo Scientific Evolution 300 UV spectrometer in deionized water at pH 7.0, gastrointestinal tract at pH 1.2, and phosphate buffer at pH 6.8 solution at 37 °C. The concentration was calculated utilizing a standard curve, which was made by measuring the absorbance of different concentrations at their λmax. A superfluity sum of the sample was added to 10 mL of H2O medium, pH 1.2 and pH 6.8 phosphate, respectively.
The oversaturated solution was stirred at 500 RPM by magnetic stirring at 37 °C for 24 h and the suspension was filtered through Whatman’s […] syringe channel, diluted sufficiently and the absorbance was measured at their λmax. For the dissolution rate, the sample was specifically poured into 250 mL pH 7.0 water, pH 1.2 gastrointestinal tract, and pH 6.8 phosphates medium and then stirred at 150 RPM for 2h at 37 °C. Each solution was measured by the absorbance at λmax. At customary interims, the solution was replenished with 3 mL of the respective blank solution to maintain an overall steady volume.

CT-26 cancer cell lines = experiment: Cytotoxicity evaluation by MTT assay, CT-26; format: cell-based, murine; details: CT-26, culturing 24 h
Procedure: (§1) CT-26 and HEK-293 cell line was purchased from American Type Culture Collection (Manassas, VA, USA). The cell lines were cultured in RPMI 1640 (for CT-26) or DMEM (for HEK-293) containing 10% fetal bovine serum (FBS, Zhejiang Tianhang Biotechnology Co. Ltd., Hangzhou, China) and 1% penicillin/streptomycin (Zhejiang Tianhang Biotechnology Co. Ltd., Hangzhou, China). Cells grew as a monolayer and were detached upon confluence using trypsin (0.5% w/v in PBS, Zhejiang Tianhang Biotechnology Co. Ltd., Hangzhou, China). The cells were harvested from the cell culture medium by incubating in trypsin solution for 3 min. The cells were centrifuged, and the supernatant discarded. A 3 mL portion of serum-supplemented cell culture medium was added to neutralize any residual trypsin. The cells were re-suspended in serum-supplemented RPMI 1640 (for CT-26) or DMEM (for HEK-293) at a concentration of 5 × 10^4 cells per 1 mL. Cells were cultured at 37 °C and 5% CO2 for MTT studies.
(§2) The CT-26 or HEK-293 cells were seeded at a density of 1 × 10^4 cells per well in 100 µL of complete RPMI 1640 (CT-26) or DMEM (for HEK-293), and cultured for 16 h for attachment. The culture medium was then replaced by a serum-free medium containing various concentrations of pristine PUE, I, and II. […] After incubating the cells at 37 °C for 4 h, the MTT solution was removed and DMSO (100 μL) added to dissolve the formazan crystals formed, and the microplates were agitated for 5 min at a medium rate before the spectrophotometric measurement at a wavelength of 570 nm on a microplate reader. […] The relative cell viability (%) related to control cells was calculated by the formula below: V%=[A]experimental−[A]blank/[A]control−[A]blank×100% where V% is the percentage of cell viability, [A]experimental is the absorbance of the wells culturing the treated cells, [A]blank is the absorbance of the blank, and [A]control is the absorbance of the wells culturing untreated cells.

HEK-293 cell lines = experiment: Cytotoxicity evaluation by MTT assay, HEK-293; format: cell-based, human; details: HEK-293, culturing 24 h
Procedure: as §1, §2

SMILES: O=C(O)[C@@H]1CCCN1.O=c1c(-c2ccc(O)cc2)coc2c([C@@H]3O[C@H](CO)[C@@H](O)[C@H](O)[C@H]3O)c(O)ccc12 [I, [PUE][PRO]]
- Time-dependent dissolution rate ([1]; Water, 5 min): 0.220 mg/mL
- Time-dependent dissolution rate ([1]; Water, 10 min): 0.343 mg/mL
- Time-dependent dissolution rate ([1]; Water, 15 min): 0.452 mg/mL
- Time-dependent dissolution rate ([1]; Water, 20 min): 0.533 mg/mL
- Time-dependent dissolution rate ([1]; Water, 25 min): 0.591 mg/mL
- Time-dependent dissolution rate ([1]; Water, 30 min): 0.674 mg/mL
- Time-dependent dissolution rate ([1]; Water, 40 min): 0.767 mg/mL
- Time-dependent dissolution rate ([1]; Water, 50 min): 0.945 mg/mL
- Time-dependent dissolution rate ([1]; Water, 60 min): 1.045 mg/mL
- Time-dependent dissolution rate ([1]; Water, 80 min): 1.373 mg/mL
- Time-dependent dissolution rate ([1]; Water, 100 min): 1.503 mg/mL
- Time-dependent dissolution rate ([1]; Water, 120 min): 1.645 mg/mL
- Time-dependent dissolution rate ([1]; pH 1.2, 5 min): 0.013 mg/mL
- Time-dependent dissolution rate ([1]; pH 1.2, 10 min): 0.035 mg/mL
- Time-dependent dissolution rate ([1]; pH 1.2, 15 min): 0.122 mg/mL
- Time-dependent dissolution rate ([1]; pH 1.2, 20 min): 0.192 mg/mL
- Time-dependent dissolution rate ([1]; pH 1.2, 25 min): 0.249 mg/mL
- Time-dependent dissolution rate ([1]; pH 1.2, 30 min): 0.356 mg/mL
- Time-dependent dissolution rate ([1]; pH 1.2, 40 min): 0.588 mg/mL
- Time-dependent dissolution rate ([1]; pH 1.2, 50 min): 0.711 mg/mL
- Time-dependent dissolution rate ([1]; pH 1.2, 60 min): 0.958 mg/mL
- Time-dependent dissolution rate ([1]; pH 1.2, 80 min): 1.159 mg/mL
- Time-dependent dissolution rate ([1]; pH 1.2, 100 min): 1.383 mg/mL
- Time-dependent dissolution rate ([1]; pH 1.2, 120 min): 1.603 mg/mL
- Time-dependent dissolution rate ([1]; pH 6.8, 5 min): 0.207 mg/mL
- Time-dependent dissolution rate ([1]; pH 6.8, 10 min): 0.291 mg/mL
- Time-dependent dissolution rate ([1]; pH 6.8, 15 min): 0.384 mg/mL
- Time-dependent dissolution rate ([1]; pH 6.8, 20 min): 0.493 mg/mL
- Time-dependent dissolution rate ([1]; pH 6.8, 25 min): 0.570 mg/mL
- Time-dependent dissolution rate ([1]; pH 6.8, 30 min): 0.664 mg/mL
- Time-dependent dissolution rate ([1]; pH 6.8, 40 min): 0.786 mg/mL
- Time-dependent dissolution rate ([1]; pH 6.8, 50 min): 0.850 mg/mL
- Time-dependent dissolution rate ([1]; pH 6.8, 60 min): 0.918 mg/mL
- Time-dependent dissolution rate ([1]; pH 6.8, 80 min): 1.183 mg/mL
- Time-dependent dissolution rate ([1]; pH 6.8, 100 min): 1.265 mg/mL
- Time-dependent dissolution rate ([1]; pH 6.8, 120 min): 1.303 mg/mL
- cytotoxicity (MTT cell viability) (CT-26 cancer cell lines): negligible cytotoxicity
- cytotoxicity (MTT cell viability) (HEK-293 cell lines): negligible cytotoxicity
